Tested on: SARS-CoV-2
Assay: microbe, parasite or virus in culture
Conditions: Severe acute respiratory syndrome coronavirus 2, Vero C1008, 48 h

Structure (SMILES) | IC50 [µM] | IC50 (read-out: pIC50 (converted)) [µM]
NC(=O)NC1NC(=O)NC1=O (stereo not drawn) [ALLANTOIN] | > 20 | > 20
C=CC(=O)Nc1ccc2ncnc(Nc3ccc(OCc4cccc(F)c4)c(Cl)c3)c2c1 [ALLITINIB] | > 20 | > 20
C=CCC1(CC=C)C(=O)NC(=O)NC1=O [ALLOBARBITAL] | > 20 | > 20
Oc1ncnc2[nH]ncc12 [ALLOPURINOL] | > 20 | > 20
O=C1NC(=O)C(=O)C(=O)N1 [ALLOXAN] | > 20 | > 20
O=c1[nH]c(=O)c2nc3ccccc3nc2[nH]1 [ALLOXAZINE] | > 20 | > 20
C=CC[C@]1(O)CC[C@H]2[C@@H]3CCC4=CCCC[C@@H]4[C@H]3CC[C@@]21C [ALLYLESTRENOL] | > 20 | > 20
C=CCNc1nc(NCC=C)nc(N2CCN(C(c3ccc(F)cc3)c3ccc(F)cc3)CC2)n1 [ALMITRINE] | > 20 | > 20
CN(C)CCc1c[nH]c2ccc(CS(=O)(=O)N3CCCC3)cc12 [ALMOTRIPTAN] | > 20 | > 20
Cn1c(=O)cc(N2CCC[C@@H](N)C2)n(Cc2ccccc2C#N)c1=O [ALOGLIPTIN] | > 20 | > 20
Cc1[nH]cnc1CN1CCc2c(c3ccccc3n2C)C1=O [ALOSETRON] | > 20 | > 20
Cc1cn([C@H]2C[C@H](F)[C@@H](CO)O2)c(=O)[nH]c1=O [ALOVUDINE] | > 100 | > 100
Cc1nc(NC(=O)N2CCC[C@H]2C(N)=O)sc1-c1ccnc(C(C)(C)C(F)(F)F)c1 [ALPELISIB] | > 20 | > 20
CCOC(=O)c1[nH]c2cc(OC)c(OC)cc2c1CCN1CCN(c2ccccc2)CC1 [ALPERTINE] | > 20 | > 20
CC1(C)C(C=C(Cl)Cl)C1C(=O)OC(C#N)c1cccc(Oc2ccccc2)c1 (stereo not drawn) [ALPHA-CYPERMETHRIN] | > 20 | > 20
O=C(O)CCC(=O)C(=O)O [ALPHA-KETOGLUTARIC ACID] | > 20 | > 20
CC[C@@H](O)C(C[C@@H](C)N(C)C)(c1ccccc1)c1ccccc1 [ALPHAMETHADOL] | > 20 | > 20
CCC(=O)OC1(c2ccccc2)CCN(C)CC1C (stereo not drawn) [ALPHAPRODINE] | > 20 | > 20
CCCN(CCC)C(=O)Cc1c(-c2ccc(Cl)cc2)nc2ccc(Cl)cn12 [ALPIDEM] | > 20 | > 20
Cc1nnc2n1-c1ccc(Cl)cc1C(c1ccccc1)=NC2 [ALPRAZOLAM] | > 20 | > 20

Structure (SMILES) | IC50 [µM] | IC50 (read-out: pIC50 (converted)) [µM]
C=CCc1ccccc1OCC(O)CNC(C)C (stereo not drawn) [ALPRENOLOL] | > 20 | > 20
CCCCC[C@H](O)/C=C/[C@H]1[C@H](O)CC(=O)[C@@H]1CCCCCCC(=O)O [ALPROSTADIL] | > 20 | > 20
O=C(O)CN1C(=O)c2cccc3cccc(c23)C1=O [ALRESTATIN] | > 20 | > 20
O=C(c1ccc(F)cc1)C1CCN(CCn2c(=S)[nH]c3ccccc3c2=O)CC1 [ALTANSERIN] | > 20 | > 20
C=CCSCC1Nc2cc(Cl)c(S(N)(=O)=O)cc2S(=O)(=O)N1 (stereo not drawn) [ALTHIAZIDE] | > 20 | > 20
C#Cc1cncc([C@@H]2CCCN2C)c1 [ALTINICLINE] | > 20 | > 20
C=CC[C@]1(O)CC[C@H]2[C@@H]3CCC4=CC(=O)CCC4=C3C=C[C@@]21C [ALTRENOGEST] | > 20 | > 20
CN(C)c1nc(N(C)C)nc(N(C)C)n1 [ALTRETAMINE] | > 20 | > 20
CCN(CCCc1ccccc1)CCCc1ccccc1 [ALVERINE] | > 20 | > 20
Nc1ncnc(Nc2ccccc2)n1 [AMANOZINE] | > 20 | > 20
NC12CC3CC(CC(C3)C1)C2 [AMANTADINE] | > 20 | > 20
Nc1ccc(C(=O)N2CC3CC(CN(Cc4ccccc4)C3)C2)cc1 [AMBASILIDE] | > 20 | > 20
N=C(N)NN=C1C=CC(=NNC(N)=S)C=C1 [AMBAZONE] | > 20 | > 20
COC(c1ccccc1)(c1ccccc1)[C@H](Oc1nc(C)cc(C)n1)C(=O)O [AMBRISENTAN] | > 20 | > 20
Nc1c(Br)cc(Br)cc1CN[C@H]1CC[C@H](O)CC1 [AMBROXOL] | > 20 | > 20
CCCCN(CCCC)C(C(N)=O)c1ccc(OC)cc1 (stereo not drawn) [AMBUCETAMIDE] | > 20 | > 20
CC[N+](C)(C)CCC(C(N)=O)(c1ccccc1)c1ccccc1 [AMBUTONIUM] | > 20 | > 20
CC(=O)OCC(=O)[C@@]12OC3(CCCC3)O[C@@H]1C[C@H]1[C@@H]3CCC4=CC(=O)C=C[C@]4(C)[C@@]3(F)[C@@H](O)C[C@@]12C [AMCINONIDE] | > 20 | > 20
CC(C)(C)C(=O)OCOC(=O)[C@@H]1N2C(=O)[C@@H](/N=C/N3CCCCCC3)[C@H]2SC1(C)C [AMDINOCILLIN PIVOXIL] | > 20 | > 20

Reference: ChEMBL document CHEMBL4651402, “Screening of ~5500 FDA-approved drugs and clinical candidates for anti-SARS-CoV-2 activity” (2021)
